Reference: paper PMC8236452, “Pharmacokinetics and safety of rucaparib in patients with advanced solid tumors and hepatic impairment” (Cancer Chemotherapy and Pharmacology, 2021)

Columns and labels:
[1] = test system: PARP; design: method as in earlier work; conditions: cited from earlier work
[2] = human, in vivo
Description: (§1) In Part 1, patients received a single oral dose of rucaparib 600 mg on day 1; PK samples were collected and safety monitored through day 7.
(§2) Sample collection, processing, and shipping were conducted according to standardized protocols shared across study sites. Plasma samples were collected for PK analysis at the predose assessment and at 1, 2, 3, 4, 8, 12, 24, 48, 72, 96, 120, and 144 h postdose. A predose urine sample was collected less than 12 h prior to study drug administration. Total urine was collected 0–12 h and 12–24 h postdose. Total (bound and unbound) concentrations of rucaparib and its metabolite M324 in plasma and urine samples were determined by Q Squared Solutions BioSciences (Ithaca, NY, USA) using validated liquid chromatography mass spectrometry/mass spectrometry methods. Stable deuterium-labeled analytes were used as internal standards. The assay calibration ranges for plasma samples were 5–10,000 ng/mL for rucaparib and 1–1000 ng/mL for M324 with lower limits of quantification (LLOQ) of 5.00 and 1.00 ng/mL, respectively. For urine samples, the calibration range was 500–50,000 ng/mL for both rucaparib and M324, with a LLOQ of 500 ng/mL for both analytes. The precision was within 9.3% CV, and the accuracy was within ± 6.2%.
(§3) PK parameters were estimated from the concentration–time profiles. Actual elapsed time after dosing was used to estimate plasma PK parameters based on noncompartmental methods using Phoenix® WinNonlin® version 8.1.0 (Certara USA, Inc., Princeton, NJ, USA). […] Exploratory PK parameters for M324 calculated based on plasma and urine concentration-time data were Cmax, AUC0–last, AUC0–inf, t1/2, tmax, Ae0–24, and CLR, as data allowed.
(§4) PK parameters were calculated by noncompartmental analysis, analyzed using descriptive statistics, and presented by hepatic functional status. Analysis of variance (ANOVA) was used to compare PK parameters (e.g., Cmax, AUC0–last, and AUC0–inf) between the normal hepatic function group and the moderate hepatic impairment group per NCI-ODWG criteria. PK values were log-transformed before analysis. Baseline covariates (e.g., creatinine clearance [CLcr], sex, age, BMI, and ECOG PS) were tested for any significant effect (P value < 0.05). Geometric least-squares means were used to calculate the ratios of the PK parameters in the hepatic impairment group to those in the control group, along with 90% confidence intervals (CIs). The Wilcoxon rank-sum test was used to compare tmax values between the two groups, and estimates of the median differences were determined, along with 90% CIs. In addition, the relationships between log-transformed PK parameters (AUC0–last, AUC0–inf, Cmax) for rucaparib and M324 and hepatic function parameters (bilirubin and aspartate aminotransferase [AST]) relevant to the classification of hepatic impairment according to NCI-ODWG were explored by a linear regression approach.

[3] = Plasma pharmacokinetics after a single oral dose of rucaparib 600 mg in patients with advanced solid tumors, by hepatic function group; conditions: for AUC0–last, Geometric LS means / Cmax, Geometric LS means: ANOVA; for AUC0–inf, GM / AUC0–inf, Mean (SD) / AUC0–inf, Median (min–max) / AUC0–last, GM / AUC0–last, Mean (SD) / AUC0–last, Median (min–max) / Cmax, GM / Cmax, Mean (SD) / Cmax, Median (min–max) / tmax, Median (min–max): single oral rucaparib 600 mg
Description: as §1, §2, §3, §4

[4] = test system: PARP; conditions: cited from earlier work
[5] = cited from earlier work
[6] = Urine pharmacokinetics (Ae0–24, CLR) after a single oral dose of rucaparib 600 mg in patients with advanced solid tumors; format: in vivo, human; conditions: single oral rucaparib 600 mg; for Ae0–24, GM / Ae0–24, Mean (SD) / Ae0–24, Median (min–max): urine
Description: Stable deuterium-labeled analytes were used as internal standards.
PK parameters were estimated from the concentration–time profiles.

[7] = ref unpublished results; cited from earlier work
[8] = NCI-ODWG moderate hepatic impairment (n = 8)
[9] = NCI-ODWG normal hepatic function (n = 8)
[10] = Child–Pugh mild hepatic impairment
[11] = Child–Pugh moderate hepatic impairment
[12] = Child–Pugh severe hepatic impairment
[13] = NCI-ODWG moderate hepatic impairment
[14] = NCI-ODWG normal hepatic function
[15] = linear regression of log-transformed PK parameter on hepatic function parameter (NCI-ODWG)

## O=C(O)c1ccc(-c2[nH]c3cc(F)cc4c3c2CCNC4=O)cc1 [M324]
[1]
  activity in in vitro target binding affinity and cytotoxicity assay: inactive
[2]
  AUC0–last, Geometric mean ratio Moderate/normal (90% CI): 1.483 (0.766–2.868)
  Cmax, Geometric mean ratio Moderate/normal (90% CI): 1.055 (0.529–2.105)
[3]; [8]
  AUC0–last, Geometric LS means: 5930 h⋅ng/mL
  Cmax, Geometric LS means: 76.7 ng/mL
[3]; [9]
  AUC0–last, Geometric LS means: 4000 h⋅ng/mL
  Cmax, Geometric LS means: 72.7 ng/mL
[3]; [10]
  AUC0–inf, GM: 5590 h⋅ng/mL
  AUC0–inf, Mean (SD): 5800 (1720) h⋅ng/mL
  AUC0–inf, Median (min–max): 5700 (3960–8340) h⋅ng/mL
  AUC0–last, GM: 4740 h⋅ng/mL
  AUC0–last, Mean (SD): 5070 (1910) h⋅ng/mL
  AUC0–last, Median (min–max): 5130 (2330–7890) h⋅ng/mL
  Cmax, GM: 97.9 ng/mL
  Cmax, Mean (SD): 111 (62.9) ng/mL
  Cmax, Median (min–max): 98.7 (42.7–235) ng/mL
  tmax, Median (min–max): 4.00 (3.00–24.0) h
[3]; [11]
  AUC0–inf, GM: 3580 h⋅ng/mL
  AUC0–inf, Mean (SD): 3840 (1590) h⋅ng/mL
  AUC0–inf, Median (min–max): 4190 (2100–5230) h⋅ng/mL
  AUC0–last, GM: 4550 h⋅ng/mL
  AUC0–last, Mean (SD): 5690 (4710) h⋅ng/mL
  AUC0–last, Median (min–max): 3810 (1930–15,600) h⋅ng/mL
  Cmax, GM: 57.4 ng/mL
  Cmax, Mean (SD): 64.1 (33.1) ng/mL
  Cmax, Median (min–max): 50.9 (28.9–118) ng/mL
  tmax, Median (min–max): 23.9 (4.03–72.0) h
[3]; [12]
  AUC0–last, GM: 6840 h⋅ng/mL
  AUC0–last, Mean (SD): 15,900 (20,200) h⋅ng/mL
  AUC0–last, Median (min–max): 15,900 (1550–30,200) h⋅ng/mL
  Cmax, GM: 72.5 ng/mL
  Cmax, Mean (SD): 164 (208) ng/mL
  Cmax, Median (min–max): 164 (16.9–311) ng/mL
  tmax, Median (min–max): 73.5 (2.97–144) h
[3]; [13]
  AUC0–inf, GM: 4960 h⋅ng/mL
  AUC0–inf, Mean (SD): 4990 (720) h⋅ng/mL
  AUC0–inf, Median (min–max): 5230 (4190–5570) h⋅ng/mL
  AUC0–last, GM: 5930 h⋅ng/mL
  AUC0–last, Mean (SD): 8940 (9600) h⋅ng/mL
  AUC0–last, Median (min–max): 4760 (1550–30,200) h⋅ng/mL
  Cmax, GM: 76.7 ng/mL
  Cmax, Mean (SD): 105 (91.8) ng/mL
  Cmax, Median (min–max): 83.7 (16.9–311) ng/mL
  tmax, Median (min–max): 30.0 (2.97–144) h
[3]; [14]
  AUC0–inf, GM: 4750 h⋅ng/mL
  AUC0–inf, Mean (SD): 5220 (2300) h⋅ng/mL
  AUC0–inf, Median (min–max): 4930 (2100–8340) h⋅ng/mL
  AUC0–last, GM: 4000 h⋅ng/mL
  AUC0–last, Mean (SD): 4450 (2130) h⋅ng/mL
  AUC0–last, Median (min–max): 3810 (1930–7890) h⋅ng/mL
  Cmax, GM: 72.7 ng/mL
  Cmax, Mean (SD): 90.1 (67.4) ng/mL
  Cmax, Median (min–max): 74.5 (28.9–235) ng/mL
  tmax, Median (min–max): 10.1 (3.00–24.0) h
[3]; [15]
  Slope estimate (90% CI), AUC0-last vs AST: 0.001 (–0.001 to 0.004)
  Slope estimate (90% CI), AUC0-last vs Bilirubin: –0.004 (–0.018 to 0.011)
  Slope estimate (90% CI), Cmax vs AST: 0 (–0.002 to 0.003)
  Slope estimate (90% CI), Cmax vs Bilirubin: –0.007 (–0.022 to 0.007)
[4]
  biological activity, in vitro PARP inhibition data: not biologically active
[5]
  formation of M324, share of total clearance of rucaparib: ~ 1/3
[6]; [10]
  CLR, GM: 119 mL/min
  CLR, Mean (SD): 121 (26.2) mL/min
  CLR, Median (min–max): 114 (94.7–161) mL/min
  Ae0–24, GM: 13.1 mg
  Ae0–24, Mean (SD): 16.1 (11.9) mg
  Ae0–24, Median (min–max): 14.5 (4.77–40.9) mg
[6]; [11]
  CLR, GM: 68.5 mL/min
  CLR, Mean (SD): 90.5 (55.6) mL/min
  CLR, Median (min–max): 104 (12.7–163) mL/min
  Ae0–24, GM: 4.33 mg
  Ae0–24, Mean (SD): 5.44 (4.06) mg
  Ae0–24, Median (min–max): 4.29 (1.46–12.8) mg
[6]; [12]
  CLR, GM: 24.8 mL/min
  CLR, Mean (SD): 39.3 (43.1) mL/min
  CLR, Median (min–max): 39.3 (8.84–69.8) mL/min
  Ae0–24, GM: 1.37 mg
  Ae0–24, Mean (SD): 1.38 (0.193) mg
  Ae0–24, Median (min–max): 1.38 (1.24–1.51) mg
[6]; [13]
  CLR, GM: 47.7 mL/min
  CLR, Mean (SD): 72.7 (57.6) mL/min
  CLR, Median (min–max): 69.8 (8.84–163) mL/min
  Ae0–24, GM: 3.61 mg
  Ae0–24, Mean (SD): 5.46 (4.96) mg
  Ae0–24, Median (min–max): 2.88 (1.24–12.8) mg
[6]; [14]
  CLR, GM: 118 mL/min
  CLR, Mean (SD): 120 (24.0) mL/min
  CLR, Median (min–max): 113 (96.7–161) mL/min
  Ae0–24, GM: 10.0 mg
  Ae0–24, Mean (SD): 13.7 (12.3) mg
  Ae0–24, Median (min–max): 10.9 (3.47–40.9) mg
[7]
  plasma protein binding: 91%
